The subject of assay [1] is PAO1 mutant MIN1_RW01_1, pmrB(Y98N). The assay is described as follows: MIC, MHB microdilution. To be noted: Pseudomonas aeruginosa, PAO1, read-out: MIC, MHB microdilution.
Assay [2] concerns PAO1 mutant MIN1_RW01_3, pmrB(V215L). Kind of assay: MIC, MHB microdilution. The following applies: Pseudomonas aeruginosa, PAO1, read-out: MIC, MHB microdilution. Background: In broth dilution the organism is exposed to a series of concentrations in liquid medium.
The next assay has as its system P. aeruginosa PAO1, WT. Kind of assay: MIC, MHB microdilution.
Assay [3] has as its system PAO1 mutant MIN16_4, nalC(T50P), pilM(Q62X). Kind of assay: MIC, MHB microdilution. The following applies: Pseudomonas aeruginosa, PAO1, read-out: MIC, MHB microdilution.
The subject of assay [4] is PAO1 mutant MIN2_RW01_3, parS(V152A). Kind of assay: MIC, MHB microdilution. To be noted: Pseudomonas aeruginosa, PAO1, read-out: MIC, MHB microdilution.
In the next assay the test system is P. aeruginosa PAO1. The assay is described as follows: One-step mutant generation and resistant population analysis on MHA. The assay is classed as cell-based, Pseudomonas aeruginosa. The method, then:
Selection of resistant mutants was performed for minocycline with and without RW01 in three independent replicates for wild-type P. aeruginosa reference strain PAO1. Tubes containing Mueller-Hinton broth (MHB) were inoculated and incubated for 24 h at 37°C. Afterward, 1/100 dilution of each tube was incubated at 37°C in MHB to late-exponential growth phase, measured by spectrophotometry at OD600. […] A control plate without antibiotic was included as inoculum control. After overnight incubation, colony counting of each treatment was performed to analyze the generation of resistant population. The mutant prevention concentration (MPC) was defined as the lowest concentration of antibiotic yielding no growth of resistant mutants. Selected mutants were checked for susceptibility profiles by using a Sensititre custom plate (Thermo Fisher Scientific, Massachusetts, USA) for Gram-negative bacteria, following the manufacturer’s instructions.

The values below come from paper PMC11823630, “In vitro potentiation of tetracyclines in Pseudomonas aeruginosa by RW01, a new cyclic peptide” (Antimicrobial Agents and Chemotherapy, 2024).

The MIC is the smallest concentration in the dilution series that meets the test's criterion for growth inhibition.

Values after ≈ are worked out from the molar mass of the structure shown.

As for `CN(C)c1ccc(O)c2c1C[C@H]1C[C@H]3[C@H](N(C)C)C(O)=C(C(N)=O)C(=O)[C@@]3(O)C(O)=C1C2=O` [Minocycline, minocycline], the minimum inhibitory concentration (MIC) in assay [1] was 16 µg/mL (≈ 35 µM); in assay [2] it was 16 µg/mL (≈ 35 µM); with P. aeruginosa PAO1, WT (Pseudomonas aeruginosa, PAO1, read-out: MIC, MHB microdilution) it was 4 to 8 µg/mL (≈ 8.74 to 17.5 µM); in assay [3], 16 µg/mL (≈ 35 µM); in assay [4] it was 16 µg/mL (≈ 35 µM); in the assay on P. aeruginosa PAO1 (Pseudomonas aeruginosa, PAO1, read-out: MIC (population studies)), 4 to 8 µg/mL (≈ 8.74 to 17.5 µM). Further, in the assay with P. aeruginosa PAO1, WT (PAO1 WT, minocycline MIC in combination with RW01, listed as MIN), the “MIC of MIN + RW01, MHB microdilution” value was 0.5 to 1 µg/mL. Besides, in the assay on P. aeruginosa PAO1 (PAO1, minocycline alone, three independent replicates), the “mutant prevention concentration (MPC)” value was 32 to 64 mg/L. Also, the “mutant prevention concentration (MPC) with RW01” value with P. aeruginosa PAO1 (PAO1, minocycline co-administered with RW01 100 mg/L) is on record as 8 mg/L.
